Reference: the CheMixHub ionic liquid set

Experiment: xn = mol fraction of the nth substance listed

CC[n+]1ccn(C)c1.F[B-](F)(F)F + CC(=O)N(C)C
Details	electrical conductivity [S/m]	viscosity [mPa·s]
283.15 K, 100 kPa, x1 = 0.0006798	0.03925	–
288.15 K, 100 kPa, x1 = 0.001378	0.07985	–
298.15 K, 100 kPa, x1 = 0.0004953	0.03615	–
303.15 K, 101 kPa, x2 = 0	–	28
303.15 K, 101 kPa, x2 = 0.1998	–	18.05
303.15 K, 101 kPa, x2 = 0.6	–	5.678
303.15 K, 101 kPa, x2 = 0.6996	–	3.833
303.15 K, 101 kPa, x2 = 0.8001	–	2.499
313.15 K, 100 kPa, x1 = 0.0006798	0.05765	–
313.15 K, 101 kPa, x2 = 0.5005	–	6.172
313.15 K, 101 kPa, x2 = 0.6	–	4.493
323.15 K, 101 kPa, x2 = 0	–	15.35
323.15 K, 101 kPa, x2 = 0.2995	–	8.36
333.15 K, 101 kPa, x2 = 0.2995	–	6.91
333.15 K, 101 kPa, x2 = 0.3989	–	5.375

CCS(=O)(=O)[O-].[NH4+] + CC(=O)[O-].CC[n+]1ccn(C)c1
101 kPa
Details	electrical conductivity [S/m]	viscosity [mPa·s]
313.15 K, x1 = 0.1701	0.38	112.1
318.15 K, x1 = 0.05	0.649	51.8
323.15 K, x1 = 0.0999	0.669	50.7
323.15 K, x1 = 0.1701	0.588	65.1

OC[C@@H](O)[C@@H](O)[C@H](O)[C@@H](O)CO + CC(=O)[O-].CC[n+]1ccn(C)c1
303.15 K, 100 kPa
Details	viscosity [mPa·s]
x1 = 0.1894	283
x1 = 0.5836	2256

CC[n+]1ccn(C)c1.F[B-](F)(F)F + CC(=O)c1ccccc1
Details	viscosity [mPa·s]
293.15 K, 100 kPa, x2 = 0	42.7

C[N+](C)(C)Cc1ccccc1.[Cl-] + CCC(O)CO
101.13 kPa, x1 = 0.5
Details	electrical conductivity [S/m]	viscosity [mPa·s]
308 K	–	64
323 K	0.53	–

CCCCCCCCCC(=O)[O-].CCCCCCCCCCCCCC[P+](CCCCCC)(CCCCCC)CCCCCC + CCCC(=O)O + O
298 K, 100 kPa
Details	viscosity [mPa·s]
x2 = 0, x3 = 0.8754	96
x2 = 0.02766, x3 = 0.8266	95
x2 = 0.04982, x3 = 0.8036	97
x2 = 0.3259, x3 = 0.4715	100
x2 = 0.4065, x3 = 0.3936	96
x2 = 0.4564, x3 = 0.3488	91
x2 = 0.4978, x3 = 0.3385	78

CCCCCCCC[N+](CCCCCCCC)(CCCCCCCC)CCCCCCCC.[Br-] + CCCCCC(=O)O
Details	electrical conductivity [S/m]
298.1 K, 100 kPa, x1 = 0.333	4.5e-06

CCCCCCCC[N+](CCCCCCCC)(CCCCCCCC)CCCCCCCC.[Br-] + CCCCCCC(=O)O
Details	electrical conductivity [S/m]
298.1 K, 100 kPa, x1 = 0.333	4.5e-06

CCCCCCCC[N+](CCCCCCCC)(CCCCCCCC)CCCCCCCC.[Br-] + CCCCCCCC(=O)O
Details	electrical conductivity [S/m]
298.1 K, 100 kPa, x1 = 0.333	4.5e-06

CCCCCCCC[N+](CCCCCCCC)(CCCCCCCC)CCCCCCCC.[Br-] + CCCCCCCCCC(=O)O
Details	electrical conductivity [S/m]	viscosity [mPa·s]
293 K, 100 kPa, x1 = 0.3333	–	910
298 K, 100 kPa, x1 = 0.3333	–	650
298.1 K, 100 kPa, x1 = 0.333	4.5e-06	–
303 K, 100 kPa, x1 = 0.3333	–	470
303.15 K, 101 kPa, x2 = 0.6667	–	469
313 K, 100 kPa, x1 = 0.3333	–	260
318.15 K, 100 kPa, x1 = 0.333	–	208
323.15 K, 101 kPa, x2 = 0.6667	–	174
333 K, 100 kPa, x1 = 0.3333	–	98
353.15 K, 101 kPa, x2 = 0.6667	–	56

OC[C@@H](O)[C@@H](O)[C@H](O)[C@@H](O)CO + CCCCCCCCCCCCCCCC[N+](C)(C)C.[Br-] + O
viscosity [mPa·s], 100 kPa
Details	298.15 K	308.15 K	318.15 K
x1 = 0.0007313, x2 = 1.441e-05	0.921	0.762	–
x1 = 0.0008985, x2 = 7.2e-06	0.923	–	0.634
x1 = 0.001226, x2 = 1.44e-05	–	0.774	–
x1 = 0.001311, x2 = 2.16e-05	0.942	0.779	0.644
x1 = 0.001618, x2 = 1.439e-05	0.949	–	0.649
x1 = 0.001661, x2 = 2.159e-05	0.954	0.788	0.651
x1 = 0.001736, x2 = 7.2e-06	0.949	–	0.651
x1 = 0.001867, x2 = 7.19e-06	–	0.788	0.654
x1 = 0.001983, x2 = 2.158e-05	0.964	–	0.658
x1 = 0.00199, x2 = 1.439e-05	0.96	0.793	0.657
x1 = 0.00225, x2 = 2.157e-05	0.973	0.803	0.664
x1 = 0.002345, x2 = 7.19e-06	0.968	0.799	0.663
x1 = 0.002374, x2 = 1.438e-05	0.972	0.803	0.665
x1 = 0.002657, x2 = 1.438e-05	0.981	0.81	0.67
x1 = 0.002734, x2 = 7.19e-06	0.98	0.809	0.671
x1 = 0.002734, x2 = 2.156e-05	0.989	0.816	0.674
